In article PMC5935545 (Molecular cell, 2018):

Tests used:
EZH2 (PRC2) = EZH2 (PRC2) (Homo sapiens, UniProt Q15910); format: biochemical
[1] = target: EZH2 Y646N (PRC2/EZH2^Y646N) (Homo sapiens, UniProt Q15910, Y641N); format: biochemical
Chain of EZH2 Y646N (PRC2/EZH2^Y646N) (Q15910 whole entry Y641N): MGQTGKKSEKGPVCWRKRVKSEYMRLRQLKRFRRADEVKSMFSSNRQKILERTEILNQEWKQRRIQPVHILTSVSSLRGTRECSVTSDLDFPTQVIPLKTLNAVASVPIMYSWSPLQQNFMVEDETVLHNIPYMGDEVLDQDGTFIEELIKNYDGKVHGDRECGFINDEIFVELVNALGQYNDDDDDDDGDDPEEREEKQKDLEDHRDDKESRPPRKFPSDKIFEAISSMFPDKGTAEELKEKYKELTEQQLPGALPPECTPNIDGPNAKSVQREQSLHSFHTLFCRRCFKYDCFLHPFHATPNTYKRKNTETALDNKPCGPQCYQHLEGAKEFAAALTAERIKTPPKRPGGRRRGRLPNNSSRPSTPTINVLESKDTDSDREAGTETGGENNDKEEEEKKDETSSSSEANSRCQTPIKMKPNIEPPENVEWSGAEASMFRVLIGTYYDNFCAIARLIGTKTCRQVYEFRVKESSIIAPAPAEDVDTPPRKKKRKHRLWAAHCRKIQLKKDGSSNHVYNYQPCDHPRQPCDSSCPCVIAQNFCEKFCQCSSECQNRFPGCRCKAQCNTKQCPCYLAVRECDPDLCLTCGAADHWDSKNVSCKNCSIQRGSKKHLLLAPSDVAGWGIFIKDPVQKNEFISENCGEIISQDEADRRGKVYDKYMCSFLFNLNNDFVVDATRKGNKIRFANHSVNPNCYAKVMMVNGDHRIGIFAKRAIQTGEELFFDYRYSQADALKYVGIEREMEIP
Chain of EZH2 Y646N (PRC2/EZH2^Y646N) (O75530 2-441 partner): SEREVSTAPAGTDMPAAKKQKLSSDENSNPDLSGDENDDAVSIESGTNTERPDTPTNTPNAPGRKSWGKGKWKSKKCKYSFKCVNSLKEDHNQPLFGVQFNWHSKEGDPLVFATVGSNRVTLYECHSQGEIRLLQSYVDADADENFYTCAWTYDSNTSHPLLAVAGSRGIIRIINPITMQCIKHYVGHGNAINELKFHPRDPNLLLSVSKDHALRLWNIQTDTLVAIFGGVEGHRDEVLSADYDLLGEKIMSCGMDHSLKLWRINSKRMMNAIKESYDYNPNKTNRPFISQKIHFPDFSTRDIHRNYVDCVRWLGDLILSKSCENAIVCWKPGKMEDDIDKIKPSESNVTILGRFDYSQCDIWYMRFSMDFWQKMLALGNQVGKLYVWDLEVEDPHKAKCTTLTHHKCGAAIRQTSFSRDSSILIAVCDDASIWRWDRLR
Chain of EZH2 Y646N (PRC2/EZH2^Y646N) (Q15022 whole entry partner): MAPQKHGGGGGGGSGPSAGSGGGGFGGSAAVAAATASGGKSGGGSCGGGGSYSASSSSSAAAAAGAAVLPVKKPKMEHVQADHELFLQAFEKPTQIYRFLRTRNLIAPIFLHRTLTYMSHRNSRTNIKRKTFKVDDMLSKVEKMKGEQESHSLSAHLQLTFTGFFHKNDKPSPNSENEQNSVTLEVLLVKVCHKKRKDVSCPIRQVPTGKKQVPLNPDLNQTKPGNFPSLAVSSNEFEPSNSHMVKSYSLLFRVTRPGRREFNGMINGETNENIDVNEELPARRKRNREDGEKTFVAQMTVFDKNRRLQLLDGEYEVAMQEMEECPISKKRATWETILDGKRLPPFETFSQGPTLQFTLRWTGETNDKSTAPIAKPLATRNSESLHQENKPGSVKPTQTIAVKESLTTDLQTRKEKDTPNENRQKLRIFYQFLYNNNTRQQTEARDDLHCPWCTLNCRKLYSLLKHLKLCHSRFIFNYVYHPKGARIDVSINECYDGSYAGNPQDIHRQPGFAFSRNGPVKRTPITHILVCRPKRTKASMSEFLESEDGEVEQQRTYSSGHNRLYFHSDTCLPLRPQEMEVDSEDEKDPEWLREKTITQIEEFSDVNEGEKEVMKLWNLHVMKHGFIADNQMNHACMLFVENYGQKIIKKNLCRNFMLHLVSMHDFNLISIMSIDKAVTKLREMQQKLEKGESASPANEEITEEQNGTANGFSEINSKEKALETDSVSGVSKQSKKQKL
Chain of EZH2 Y646N (PRC2/EZH2^Y646N) (Q09028 2-425 partner): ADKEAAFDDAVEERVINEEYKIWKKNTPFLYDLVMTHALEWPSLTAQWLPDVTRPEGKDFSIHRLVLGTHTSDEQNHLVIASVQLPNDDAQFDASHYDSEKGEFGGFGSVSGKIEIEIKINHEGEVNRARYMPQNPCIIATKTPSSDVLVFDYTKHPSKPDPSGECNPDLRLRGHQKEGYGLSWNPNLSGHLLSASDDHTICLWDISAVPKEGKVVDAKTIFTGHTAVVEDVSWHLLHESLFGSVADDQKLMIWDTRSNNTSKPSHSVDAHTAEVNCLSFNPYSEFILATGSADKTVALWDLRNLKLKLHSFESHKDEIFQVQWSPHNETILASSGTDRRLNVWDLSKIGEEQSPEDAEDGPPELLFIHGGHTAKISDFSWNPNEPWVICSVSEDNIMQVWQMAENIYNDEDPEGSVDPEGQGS

Chain of EZH2 (PRC2) (Q15910 whole entry): as the sequence (Q15910 whole entry Y641N) above, with N641Y counted along it
Chain of EZH2 (PRC2) (O75530 2-441 partner): as the sequence (O75530 2-441 partner) above
Chain of EZH2 (PRC2) (Q15022 whole entry partner): as the sequence (Q15022 whole entry partner) above
Chain of EZH2 (PRC2) (Q09028 2-425 partner): as the sequence (Q09028 2-425 partner) above

IC50 (EZH2 (PRC2)): 766 ± 710 nM
IC50 [1]: 891 ± 96 nM
SMILES: COC(=O)c1ccc(NC(=O)c2ccc(NC(=O)c3ccc([N+](=O)[O-])c(OCc4ccccc4)n3)c(OCc3ccccc3)n2)c(OCCCN)n1 [ADH-61]
